# Tested on: 4 week-old rat DRGs
# Assay: in vitro neurite outgrowth assay on immobilized AP-Nogo-66
# Format: cell-based
# Method: JNK is a member of the mitogen-activated protein kinase (MAP kinase) family which is abundantly expressed in axons and growth cones, and has been implicated in numerous roles including cell stress and cell proliferation. […] Briefly, 4 week-old rat DRGs were dissected, dissociated and plated onto immobilized substrates (AP (100 ng/cm^2) or AP-Nogo-66 (100 ng/cm^2)). Cells were cultured for 24 h before fixation with 4% paraformaldehyde and staining with a neuronal-specific anti-β-tubulin III antibody (Tuj-1, Covance). The average lengths of the longest neurite in individual neurons were measured from at least 150 neurons per condition, from duplicate wells and from three independent experiments, and quantified as described previously. Immunohistochemistry was performed using antibodies against p75 (Chemicon).
compound,measurement,value
Oc1c2ccccc2c2c3c(cccc13)N=N2 [SP600125],concentrations resulting in an abortion of neurite extension,above 5 μM

# — US20080051319A1, “Inhibiting JNK Signaling Promotes CNS Axon Regeneration” (Children's Medical Center Corporation, priority 2006, published 2008)
